According to patent US10271539B2, “Assay-ready frozen cell and method for minimizing variability in the performance thereof” (LE CENTRE NATIONALE DE LA RECHERCHE SCIENTIFIQUE (CNRS), priority 2013, dated 2019):
Entries after “also recorded” stand apart in the source; their conditions may differ. Where a SMILES comes first, the peptide text is derived from it. [ ]: non-standard residue; d: D form. The star is where a group is joined. Sta = CC(C)C[C@H](N)[C@@H](O)CC(=O)O; Isovaleryl = CC(C)CC(=O)*; Cbz = O=C(OCc1ccccc1)*

What was measured:
KJL-2 cells [1] = assay: TNFα-induced firefly luciferase (FL) / Renilla luciferase (RL) reporter gene assay (DUAL-GLO) in vinblastin-treated, frozen and thawed KJL-2 cells; assay type: cell-based, human; settings: for FL/RL ratio: scavengers/chelators of reactive oxygen species, cells treated 10 minutes
Experimental: The X-axis is TNFα, ng/ml.
KJL-2 cells were used in all experiments (carried out to date). […] In order to reduce the formation of ice crystals and subsequent cell lysis, all experimental groups were frozen using the alcohol-free Biocison controlled freezing system that cools cells at approximately 1.0° C./minute.

KJL-2 cells [2] = assay: Staurosporine-induced apoptosis: FL and RL activity in KJL-2 cells; assay type: cell-based, human; settings: 10 micromolar staurosporine, over 24 hours
Experimental: Briefly, untreated cells or cells treated with vinblastin as described in WO 2004/039990; US 2004/0235157 and U.S. Pat. No. 7,470,536 were treated for 10 minutes with substances that inhibit the formation of reactive oxygen species and/or scavengers of reactive oxygen species either alone or concomitantly with vinblastin treatment. The cells were then frozen using the cryopreservative medium described in WO 2004/039990; US 2004/0235157 and U.S. Pat. No. 7,470,536 with or without substances that inhibit the formation of reactive oxygen species and/or scavengers of reactive oxygen species. KJL-2 cells were used in all experiments (carried out to date). All groups were treated with vinblastin using the same procedure as described in WO 2004/039990; US 2004/0235157 and U.S. Pat. No. 7,470,536. In order to reduce the formation of ice crystals and subsequent cell lysis, all experimental groups were frozen using the alcohol-free Biocison controlled freezing system that cools cells at approximately 1.0° C./minute. All assays were performed using DUAL-GLO (Promega, Catalogue No 2920) that allows Firefly luciferase (FL) and Renilla luciferase (RL) activity to be determined sequentially in the same well of a microtiter plate.

[3] = pre-treatment of cells with proteasome inhibitor
[4] = NAC both during treatment with vinblastin and in the cryopreservative medium
[5] = substances that reduce H2O2 (COX inhibitors)
[6] = pre-treatment of cells with protease inhibitor and addition to the freezing medium

For CC(C)C[C@@H](C=O)NC(=O)[C@H](CC(C)C)NC(=O)[C@H](CC(C)C)NC(=O)OCc1ccccc1 [MG-132] (Cbz-Leu-Leu-Leu-aldehyde), the FL activity (KJL-2 cells [1]; [3]) was “did not increase FL activity significantly; also recorded: reduced FL activity”.
For CC(=O)N[C@@H](CSSC[C@H](N)C(=O)O)C(=O)O [N-acetylcystine], the “vial-to-vial variation in normalized RLU and normalized fold induction” value (KJL-2 cells [1]; 5 mM NAC, FIGS. 6A and 6B) was “superior to GSH treatment in reducing vial-to-vial variation”, the “lot-to-lot variation in the performance of assay-ready frozen cells” value (KJL-2 cells [1]; [4]) was “markedly reducing” and the “vial-to-vial variation in the performance of assay-ready frozen cells” value (KJL-2 cells [1]; [4]) was “markedly reducing”.
In the case of CS(=O)(=O)c1ccc(C2=C(c3ccccc3)C(=O)OC2)cc1 [VIOXX, rofecoxib], the FL activity (KJL-2 cells [1]; [5]) is reported as “increased FL activity marginally”.
Oc1ncnc2[nH]ncc12 [allopurinol] was tested, and the “FL values (RLU)” value (KJL-2 cells [1]; 100 μM allopurinol in cryopreservative, frozen one day or 5 days, vs control, FIGS. 1A and 1B) was “significantly increases FL values”, the “intra-vial (vial to vial) variation in normalized RLU and normalized fold induction” value (KJL-2 cells [1]; 100 μM allopurinol, relative to cells treated with vinblastin alone, FIGS. 3A-4B) was “reduced intra-vial variation” and the “form of the TNFα dose response curve” value (KJL-2 cells [1]; 100 μM allopurinol, TNFα of 10 ng/ml and higher, FIGS. 4A and 4B) was “some alteration of the form of the TNFα dose response curve”.
With OC[C@@H](O)[C@@H](O)[C@H](O)[C@H](O)CO [Mannitol] the FL/RL ratio (KJL-2 cells [1]) was “without effect”.
With CC(C)CC(=O)N[C@H](C(=O)N[C@H](C(=O)N[C@@H](CC(C)C)[C@@H](O)CC(=O)N[C@@H](C)C(=O)N[C@@H](CC(C)C)[C@@H](O)CC(=O)O)C(C)C)C(C)C [Pepstatin A] (Isovaleryl-VV[Sta]A[Sta]-OH) the FL activity (KJL-2 cells [1]; [6]) was “did not significantly increase FL activity”.
CC(=O)Oc1ccccc1C(=O)O [Acetylsalicylic acid, acetylsalicylic acid] was tested, and the FL activity (KJL-2 cells [1]; [5]) was “increased FL activity marginally”.
In the case of N[C@@H](CCC(=O)N[C@@H](CS)C(=O)NCC(=O)O)C(=O)O [GSH, glutathione SH], the “vial-to-vial variation in normalized RLU and normalized fold induction” value (KJL-2 cells [1]; 1 mM GSH, FIGS. 5A and 5B) is reported as “appeared to be effective in reducing vial-to-vial variation” and the “vial-to-vial variation in normalized RLU and normalized fold induction” value (KJL-2 cells [1]; 1 mM GSH, FIGS. 5A and 5B, listed as glutathione SH) is reported as “higher degree of variability in FL readings”.
With O=S(=O)(O)c1cc(O)c(O)c(S(=O)(=O)O)c1 [Tiron] the FL/RL ratio (KJL-2 cells [1]) was “without effect”.
For CC1(C)CC(O)CC(C)(C)N1[O] [TEMPOL], the FL/RL ratio (KJL-2 cells [1]) was “without effect”.
With CC(=O)N[C@@H](CSC(=O)[C@]1([C@@H](O)C(C)C)NC(=O)[C@H](C)[C@@H]1O)C(=O)O [lactacystin] the FL activity (KJL-2 cells [1]; [3]) was “did not increase FL activity significantly”.
NCCNCCNCCNCCN [tetra ethylenepentamine] was tested, and the FL/RL ratio (KJL-2 cells [1]) was “without effect”.
In the case of CC[C@H](C)[C@H](NC(=O)[C@H]([C@@H](C)CC)N(C)C(C)=O)C(=O)N[C@H](C(=O)N[C@@H](CC(C)C)C(=O)[C@@]1(C)CO1)[C@@H](C)O [epoxomicin], the FL activity (KJL-2 cells [1]; [3]) is reported as “did not increase FL activity significantly”.
In the case of CN[C@@H]1C[C@H]2O[C@@](C)([C@@H]1OC)n1c3ccccc3c3c4c(c5c6ccccc6n2c5c31)C(=O)NC4 [staurosporine], the FL activity (KJL-2 cells [2]) is reported as “inhibits FL activity progressively” and the RL activity (KJL-2 cells [2]) is reported as “remains fairly constant”.
In the case of Cl.N [ammonium chloride], the FL activity (KJL-2 cells [1]; [6]) is reported as “did not significantly increase FL activity”.
MNTMPyP was tested, and the FL/RL ratio (KJL-2 cells [1]) was “without effect”.
With O=S(=O)(F)Cc1ccccc1 [PMSF] the FL activity (KJL-2 cells [1]; [6]) was “did not significantly increase FL activity”.
